Test results reported in patent US20260053811A1, “METHODS OF TREATING HYPERTENSION IN OBESE SUBJECTS” (Mineralys Therapeutics, Inc., priority 2022, published 2026).

Test system: hypertensive subjects
Test: Seated automated office blood pressure (AOBP) in randomized, placebo-controlled, dose-ranging study
Assay type: in vivo, human
Conditions: 100 mg QD; for Mean Automated Office-Measured Systolic Blood Pressure at Wk 8 / Mean Change from Baseline at Week 8 in Automated Office-Measured Systolic Blood Pressure / Automated Office-Measured Diastolic Blood Pressure, Week 8, mean / Change from Baseline at Week 8 in Automated Office-Measured Diastolic Blood Pressure, mean: Part 2
Procedure: A randomized, double-blinded, placebo-controlled, dose-ranging, multicenter study was conducted to evaluate the effect of orally administered Compound A HBr on blood pressure for the treatment of hypertension in male and female subjects ≥18 years of age.
The study consists of two parts. For enrollment into Part 1 of the study, a subject's value of plasma renin activity (PRA) must be ≤1 ng/mL/h based on morning measurement. If the value of PRA >1 ng/mL/h based on morning measurement, then subjects may be eligible to enter Part 2 of the study.
For Part 1, 163 enrolled subjects ≥18 years of age were randomized into 6 equal treatment groups (1:1:1:1:1:1) to 12.5 mg BID, 25 mg BID, 12.5 mg QD, 50 mg QD, 100 mg QD, or placebo. After a review of interim clinical data, the 2 lowest dose levels (12.5 mg QD and 12.5 mg BID) were stopped for future randomization due to a lack of consistent meaningful reduction of blood pressure, but the patients randomized to that point remained in the study through completion. Thus, after the review of interim clinical data, subjects were randomized into 4 equal treatment groups (1:1:1:1) to 25 mg BID, 50 mg QD, 100 mg QD, or placebo.
For Part 2, 36 enrolled subjects ≥18 years of age were randomized (5:1) to either 100 mg QD Compound A HBr or placebo such that the Compound A HBr treatment group consisted of approximately 30 subjects and the placebo treatment group will consist of approximately 6 subjects.
Subjects orally administered the assigned study drug (Compound A HBr or placebo) according to the assigned dosing regimen for 8 weeks beginning on Study Day 1. All subjects in Part 1 (regardless of dosing group) received BID dosing to preserve the integrity of the blind; active drug is administered as the morning dose for all QD dose groups. Subjects returned to the research facility or were seen by the clinical investigator or approved home health care professional at the end of Study Weeks 1, 2, 3, 4, 5, 6, 7, and 8 (±2 days) for protocol-defined efficacy and safety assessments and procedures, assessment of adverse events (AEs), and confirmation of compliance with study drug usage. Subjects also completed a telephone visit and blood pressure (BP) check at home approximately 3 days post last dose of study drug. Subjects attended up to 14 full clinic visits, including a pre-Screening visit, a Screening/start of Placebo Run-in visit, a second visit during Placebo Run-in, a clinic visit to initiate the ABPM procedure, a Randomization visit, 8 weekly visits during double-blind treatment, and an end-of-study visit scheduled 4 weeks after the last study treatment for final efficacy and safety assessments.
An automated oscillometric sphygmomanometer device was used to measure the subjects' systolic and diastolic blood pressure in office after approximately 5 minutes of rest in the seated position.
The primary endpoint is the change in office-measured (mean of last 2 of 5 unattended measurements using an automated oscillometric sphygmomanometer device after approximately 5 minutes of rest in the seated position) systolic blood pressure (SBP) from baseline to the end of Study Week 8.
Secondary endpoints of this study were: • (a) Change in 24-hour ambulatory blood pressure monitoring (ABPM) parameters (systolic and diastolic) from baseline to the end of Study Week 7. • (b) Change in office-measured SBP from baseline to the end of Study Weeks 1, 2, 3, 4, 5, 6, and 7. • (c) Change in office-measured diastolic blood pressure (DBP) from baseline to the end of Study Weeks 1, 2, 3, 4, 5, 6, 7, and 8. • (d) Proportion of subjects who achieve office-measured BP of ≤130/80 mm Hg by the end of Study Week 8.

[1] = Part 1, Thiazide Diuretic Use at Baseline No
[2] = Part 1, Thiazide Diuretic Use at Baseline Yes
[3] = Systolic Blood Pressure Tertile at Baseline High
[4] = Systolic Blood Pressure Tertile at Baseline Low
[5] = Systolic Blood Pressure Tertile at Baseline Middle
[6] = Thiazide Diuretic Use at Baseline No
[7] = Thiazide Diuretic Use at Baseline Yes

SMILES: CC(=O)N[C@H]1CC[C@H](NC(=O)CN2CCN(c3nncc(-c4ccc(C)cc4)n3)CC2)CC1 [Compound A HBr]
- Mean (SD) Change from Baseline at Week 8 in Automated Office-Measured Diastolic Blood Pressure [1]: −4.00 (6.33) mmHg
- Mean (SD) Change from Baseline at Week 8 in Automated Office-Measured Systolic Blood Pressure [1]: −9.15 (9.27) mmHg
- Automated Office-Measured Diastolic Blood Pressure, Week 8, Mean (SD) [2]: 73.40 (8.98) mmHg
- Mean (SD) Automated Office-Measured Systolic Blood Pressure at Wk 8 [2]: 128.27 (16.26) mmHg
- Mean (SD) Change from Baseline at Week 8 in Automated Office-Measured Diastolic Blood Pressure [2]: −6.43 (8.79) mmHg
- Mean (SD) Change from Baseline at Week 8 in Automated Office-Measured Systolic Blood Pressure [2]: −17.37 (14.74) mmHg
- Mean Automated Office-Measured Systolic Blood Pressure at Wk 8 (ACEi/ARB No): 131.00 mmHg
- Mean Change from Baseline at Week 8 in Automated Office-Measured Systolic Blood Pressure (ACEi/ARB No): −4.00 mmHg
- Mean Automated Office-Measured Systolic Blood Pressure at Wk 8 (ACEi/ARB Yes): 129.24 mmHg
- Mean Change from Baseline at Week 8 in Automated Office-Measured Systolic Blood Pressure (ACEi/ARB Yes): −11.45 mmHg
- Mean Automated Office-Measured Systolic Blood Pressure at Wk 8 (AHTs 2): 127.84 mmHg
- Mean Change from Baseline at Week 8 in Automated Office-Measured Systolic Blood Pressure (AHTs 2): −10.37 mmHg
- Mean Automated Office-Measured Systolic Blood Pressure at Wk 8 (AHTs ≥3): 131.82 mmHg
- Mean Change from Baseline at Week 8 in Automated Office-Measured Systolic Blood Pressure (AHTs ≥3): −12.64 mmHg
- Mean Automated Office-Measured Systolic Blood Pressure at Wk 8 (Age 65-79 yr): 132.81 mmHg
- Mean Change from Baseline at Week 8 in Automated Office-Measured Systolic Blood Pressure (Age 65-79 yr): −9.69 mmHg
- Mean Automated Office-Measured Systolic Blood Pressure at Wk 8 (Age <65 yr): 120.88 mmHg
- Mean Change from Baseline at Week 8 in Automated Office-Measured Systolic Blood Pressure (Age <65 yr): −13.06 mmHg
- Mean Automated Office-Measured Systolic Blood Pressure at Wk 8 (Age ≥80 yr): 123.00 mmHg
- Mean Change from Baseline at Week 8 in Automated Office-Measured Systolic Blood Pressure (Age ≥80 yr): −28.00 mmHg
- Mean Automated Office-Measured Systolic Blood Pressure at Wk 8 (BMI at baseline 25-30 kg/m^2): 126.80 mmHg
- Mean Change from Baseline at Week 8 in Automated Office-Measured Systolic Blood Pressure (BMI at baseline 25-30 kg/m^2): −14.60 mmHg
- Mean Automated Office-Measured Systolic Blood Pressure at Wk 8 (BMI at baseline <25 kg/m^2): 130.00 mmHg
- Mean Change from Baseline at Week 8 in Automated Office-Measured Systolic Blood Pressure (BMI at baseline <25 kg/m^2): −6.50 mmHg
- Mean Automated Office-Measured Systolic Blood Pressure at Wk 8 (BMI at baseline >30 kg/m^2): 132.08 mmHg
- Mean Change from Baseline at Week 8 in Automated Office-Measured Systolic Blood Pressure (BMI at baseline >30 kg/m^2): −8.00 mmHg
- Mean Automated Office-Measured Systolic Blood Pressure at Wk 8 (Race Black or AA): 125.83 mmHg
- Mean Change from Baseline at Week 8 in Automated Office-Measured Systolic Blood Pressure (Race Black or AA): −15.83 mmHg
- Mean Automated Office-Measured Systolic Blood Pressure at Wk 8 (Race Other): 130.17 mmHg
- Mean Change from Baseline at Week 8 in Automated Office-Measured Systolic Blood Pressure (Race Other): −10.04 mmHg
- Mean Automated Office-Measured Systolic Blood Pressure at Wk 8 (Sex Female): 127.90 mmHg
- Mean Change from Baseline at Week 8 in Automated Office-Measured Systolic Blood Pressure (Sex Female): −11.15 mmHg
- Mean Automated Office-Measured Systolic Blood Pressure at Wk 8 (Sex Male): 132.10 mmHg
- Mean Change from Baseline at Week 8 in Automated Office-Measured Systolic Blood Pressure (Sex Male): −11.30 mmHg
- Mean Automated Office-Measured Systolic Blood Pressure at Wk 8 [3]: 132.36 mmHg
- Mean Change from Baseline at Week 8 in Automated Office-Measured Systolic Blood Pressure [3]: −17.05 mmHg
- Mean Automated Office-Measured Systolic Blood Pressure at Wk 8 [4]: 124.11 mmHg
- Mean Change from Baseline at Week 8 in Automated Office-Measured Systolic Blood Pressure [4]: −7.56 mmHg
- Mean Automated Office-Measured Systolic Blood Pressure at Wk 8 [5]: 130.60 mmHg
- Mean Change from Baseline at Week 8 in Automated Office-Measured Systolic Blood Pressure [5]: −8.05 mmHg
- Automated Office-Measured Diastolic Blood Pressure, Week 8, mean [6]: 68.42 mmHg
- Change from Baseline at Week 8 in Automated Office-Measured Diastolic Blood Pressure, mean [6]: −8.13 mmHg
- Mean Automated Office-Measured Systolic Blood Pressure at Wk 8 [6]: 125.67 mmHg
- Mean Change from Baseline at Week 8 in Automated Office-Measured Systolic Blood Pressure [6]: −12.25 mmHg
- Automated Office-Measured Diastolic Blood Pressure, Week 8, mean [7]: 74.67 mmHg
- Change from Baseline at Week 8 in Automated Office-Measured Diastolic Blood Pressure, mean [7]: −4.06 mmHg
